The structures appear in SMILES notation.

The first experiment deals with T1, androgen receptor (AR) (Homo sapiens, UniProt P10275, T878A).
T1 construct: LNCaP cells express endogenous AR; endogenous in cells; host or cells: LNCaP cells
T1 sequence (P10275 1-920 T878A): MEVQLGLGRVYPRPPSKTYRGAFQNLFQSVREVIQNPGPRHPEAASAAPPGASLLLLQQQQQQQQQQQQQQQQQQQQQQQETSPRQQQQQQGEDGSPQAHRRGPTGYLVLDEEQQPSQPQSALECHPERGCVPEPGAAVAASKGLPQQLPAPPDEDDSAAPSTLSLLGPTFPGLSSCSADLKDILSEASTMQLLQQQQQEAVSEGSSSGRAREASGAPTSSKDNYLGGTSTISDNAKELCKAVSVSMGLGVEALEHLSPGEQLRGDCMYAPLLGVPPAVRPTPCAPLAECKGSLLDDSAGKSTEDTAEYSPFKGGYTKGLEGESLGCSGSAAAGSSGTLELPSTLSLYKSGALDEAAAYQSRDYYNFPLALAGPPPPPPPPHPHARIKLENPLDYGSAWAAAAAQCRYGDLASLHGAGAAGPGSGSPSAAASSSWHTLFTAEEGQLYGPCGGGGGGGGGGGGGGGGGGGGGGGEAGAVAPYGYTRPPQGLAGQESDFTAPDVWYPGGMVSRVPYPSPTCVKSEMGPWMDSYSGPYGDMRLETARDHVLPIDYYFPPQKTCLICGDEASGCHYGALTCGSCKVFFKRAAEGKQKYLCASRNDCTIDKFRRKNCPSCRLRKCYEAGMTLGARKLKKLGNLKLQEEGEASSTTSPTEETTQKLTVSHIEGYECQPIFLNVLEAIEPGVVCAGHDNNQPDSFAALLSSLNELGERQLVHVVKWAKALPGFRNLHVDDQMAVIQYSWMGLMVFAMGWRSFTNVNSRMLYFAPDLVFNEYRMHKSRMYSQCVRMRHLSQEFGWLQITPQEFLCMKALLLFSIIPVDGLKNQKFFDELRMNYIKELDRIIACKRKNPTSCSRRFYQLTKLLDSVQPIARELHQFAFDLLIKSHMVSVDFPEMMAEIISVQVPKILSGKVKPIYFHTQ
The experiment in a line: LNCaP PSA (6.1 kb)-luciferase assay (R1881-induced). In kind it is cell-based. Particulars: FIG. 7A, 1 μM to 35 μM. The text has this:
LNCaP cells were employed initially for all experiments because they are well-differentiated human prostate cancer cells in which ligand-independent activation of the AR by FSK has been characterized (Nazareth et al 1996 J. Biol. Chem. 271, 19900-19907; and Sadar 1999 J. Biol. Chem. 274, 7777-7783). LNCaP cells express endogenous AR and secrete prostate-specific antigen (PSA) (Horoszewicz et al 1983 Cancer Res. 43, 1809-1818). LNCaP cells can be grown either as monolayers in cell culture or as tumors in the well-characterized xenograft model that progresses to androgen independence in castrated hosts (Sato et al 1996 J. Steroid Biochem. Mol. Biol. 58, 139-146; Gleave et al 1991 Cancer Res. 51, 3753-3761; Sato et al 1997 Cancer Res. 57, 1584-1589; and Sadar et al 2002 Mol. Cancer Ther. 1(8), 629-637). […] Small molecules that specifically target the AR-NTD should have no effect on PC3 cells. This means that they should not alter the proliferation of PC3 cells if they specifically block the AR to mediate their inhibitory effects. R1881 was employed since it is stable and avoids problems associated with the labile physiological ligand dihydrotestosterone (DHT). Reporter specificity may be determined using several alternative reporter gene constructs. Some well characterized ARE-driven reporter gene constructs that have been used extensively are the PSA (6.1 kb) enhance/promoter which contains several AREs and is highly inducible by androgens as well as by FSK (Ueda et al 2002 A J. Biol. Chem. 277, 7076-7085) and the ARR3-thymidine kinase (tk)-luciferase, which is an artificial reporter construct that contains three tandem repeats of the rat probasin ARE1 and ARE2 regions upstream of a luciferase reporter (Snoek et al 1996 J. Steroid Biochem. Mol. Biol. 59, 243-250).
LNCaP cells were transiently cotransfected with PSA (6.1 kb)-luciferase (0.25 μg/well) in 24-well plates for 24 h prior to pre-treatment with compounds for 1 hour before the addition of synthetic androgen, R1881 (1 nM) to induce PSA production or vehicle. The total amount of plasmid DNA transfected was normalized to 0.75 μg/well by the addition of the empty vector. After 48 h of incubation with R1881, the cells were harvested, and relative luciferase activity was determined. Test compounds were added to the cells at various concentrations and activity for each treatment was normalized to the predicted maximal activity induction (in the absence of test compounds, vehicle only). Plotting of sigmoidal curves (Boltzmann Function) and IC50 calculations were done using OriginPro 8.1 Sofware (Northampton, Mass., USA).
Using the LNCaP PSA (6.1 kb)-luciferase assay described above, various compounds described herein were tested against DMSO and EPI-001 controls. In FIG. 1, a comparison is made between EPI-035 and DMSO and EPI-001 or EPI-026 from 1 μM to 10 μM. […] In FIGS. 3A and 3B, EPI-040 and EPI-051 are compared to DMSO and EPI-001 at 1 μM to 30 μM and 2.5 μM to 35 μM respectively. In FIGS. 4A and 4B, EPI-043 is compared to DMSO and EPI-001 at 5 μM to 35 μM 0.25 μM to 25 μM respectively.
Similarly, in FIG. 7B concentrations of EPI-6000, EPI-6001, EPI-6002, and EPI-6003 are shown at 12.5 μM and 25 μM as compared to the DMSO control.
Regarding `OC(CCl)COc1ccccc1Cc1ccccc1OCC(O)CCl` (stereo not drawn) [EPI-900], the “dose response as compared to the DMSO control” value is “showed a dose response”.

The same experiment, now with this note: LNCaP PSA (6.1 kb)-luciferase assay, versus DMSO and EPI-001 controls.
For the compound `CC(C)(c1ccc(OCCO)cc1)c1ccc(OCCCCl)cc1` [EPI-035], the “androgen receptor modulating activity” value is “showed androgen receptor modulating activity”.
For `CC(=O)OCCOc1ccc(C(C)(C)c2ccc(OCCCCl)cc2)cc1` [EPI-037], the “androgen receptor modulating activity” value was “showed androgen receptor modulating activity”.
As to `CC(C)(c1ccc(OCCCCl)cc1)c1ccc(OCCCCl)cc1` [EPI-038], the “androgen receptor modulating activity” value is “showed androgen receptor modulating activity”.
Same read-out and setting: the entry for `CC(C)(c1ccc(O)cc1)c1ccc(OCCOCCOCCO)cc1` [EPI-040] is “showed androgen receptor modulating activity”; for `CC(C)(c1ccc(OCCCCCCCl)cc1)c1ccc(OCCOCCOCCO)cc1` [EPI-043] it is “showed androgen receptor modulating activity”; for `C#CCOc1ccc(C(C)(C)c2ccc(OC[C@@H](O)CCl)cc2)cc1` [EPI-046] it is “showed androgen receptor modulating activity”.
The same measure, in the same setting: the entry for `C#CCOc1ccc(C(C)(C)c2ccc(OC[C@H](O)CCl)cc2)cc1` [EPI-047] is “showed androgen receptor modulating activity”.
Still for that read-out and setting: the entry for `C#CCOc1ccc(C(C)(C)c2ccc(OCC(O)CO)cc2)cc1` (stereo not drawn) [EPI-051] is “showed androgen receptor modulating activity”; for `OC(CCl)COc1ccccc1Cc1ccccc1OCC(O)CCl` (stereo not drawn) [EPI-900] it is “showed androgen receptor modulating activity”; for `CC(C)(c1ccc(OCC(O)CCl)cc1)c1ccccc1OCC(O)CO` (stereo not drawn) [EPI-6000] it is “showed androgen receptor modulating activity”.
With `CC(C)(c1ccc(OCC(O)CCl)cc1)c1ccccc1OCC(O)CO` (stereo not drawn) [EPI-6001], the “androgen receptor modulating activity” value is “showed androgen receptor modulating activity”.
Still for that read-out and setting: the result for `CC(C)(c1ccc(OCC(O)CCl)cc1)c1ccccc1OCC(O)CO` (stereo not drawn) [EPI-6002] reads “showed androgen receptor modulating activity”; that for `CC(C)(c1ccc(OCC(O)CCl)cc1)c1ccccc1OCC(O)CO` (stereo not drawn) [EPI-6003], “showed androgen receptor modulating activity”.

The experiment is the same for the next values; noted with them: LNCaP cells transfected with PSA (6.1 kb)-luciferase, 1 h pre-treatment, R1881 1 nM, 48 h.
Take `CC(C)(c1ccc(OCCO)cc1)c1ccc(OCCCCl)cc1` [drawing 869]: the “EXPERIMENTAL DATA (activity in the described assays)” value (shortened to “EXPERIMENTAL DATA”) is given as “Active”.
`CC(=O)OCCOc1ccc(C(C)(C)c2ccc(OCCCCl)cc2)cc1` [drawing 870]: the “EXPERIMENTAL DATA” value is listed as “Active”.
On the same count and under the same terms, the result for `CC(C)(c1ccc(OCCCCl)cc1)c1ccc(OCCCCl)cc1` [drawing 871] reads “Active”; that for `CC(C)(c1ccc(OCCCCCCCl)cc1)c1ccc(OCCOCCOCCO)cc1` [drawing 874], “Active”; that for `C#CCOc1ccc(C(C)(C)c2ccc(OC[C@@H](O)CCl)cc2)cc1` [drawing 875], “Active”.
On to `C#CCOc1ccc(C(C)(C)c2ccc(OC[C@H](O)CCl)cc2)cc1` [drawing 876], for which the “EXPERIMENTAL DATA” value is given as “Active”.
Still for that read-out and setting: the result for `C#CCOc1ccc(C(C)(C)c2ccc(OCC(O)CO)cc2)cc1` (centres unmarked) [drawing 877] reads “Active”.
For the compound `OC(CCl)COc1ccccc1Cc1ccccc1OCC(O)CCl` (centres unmarked) [drawing 878], the “EXPERIMENTAL DATA” value is reported as “Active”.
Regarding `CC(C)(c1ccc(OCC(O)CCl)cc1)c1ccccc1OCC(O)CO` (centres unmarked) [drawing 879], the “EXPERIMENTAL DATA” value is reported as “Active”.

Source of the values: patent US9388112B2, “Bisphenol derivatives and their use as androgen receptor activity modulators” (The University of British Columbia, priority 2010, dated 2016).
